Assay results: patent EP4696306A1, “ADENOSINE TRIPHOSPHATE SECRETION INHIBITOR, HEPATIC STELLATE CELL ACTIVATION INHIBITOR, HEPATIC STELLATE CELL DEACTIVATOR, HEPATIC FIBROSIS THERAPEUTIC AGENT, NON-ALCOHOLIC STEATOHEPATITIS THERAPEUTIC AGENT, PSORIASIS THERAPEUTIC AGENT, AND USE OF COMPOUND FOR PRODUCING ADENOSINE TRIPHOSPHATE …” (KURUME UNIVERSITY, priority 2023, dated 2024)

Experiments:
[1] = test system: human epidermal keratinocytes; assay: LPS-stimulated ATP secretion in keratinocytes; type: cell-based; conditions: 18 hours incubation, LPS 10 µg/ml 10 minutes, N = 8
Procedure: Keratinocytes were cultured in the same manner as in Example 1. Keratinocytes were cultured at 2.5 × 10^4 cells/well in a 24-well plate at 37°C in 5% CO2 for 4 days. The medium was replaced with a test solution (Hanks' balanced salt solution (HBSS) (manufactured by Gibco) supplemented with imeglimin, metformin, or clodronate), and then incubation was performed at 37°C in 5% CO2 for 18 hours. Thereafter, LPS (10 µg/ml) was added thereto, and incubation was further carried out for 10 minutes, followed by collection of 200 µl of the supernatant. The supernatant was immediately treated on a heat block at 95°C for 10 minutes, and ATP in the supernatant was quantified using an ATP Assay Kit - Luminescence (manufactured by Dojindo) (N = 8).

[2] = test system: THP-1 cells; assay: LPS-stimulated ATP secretion in macrophages differentiated from THP-1 cells; type: cell-based, human; conditions: 10 µM; LPS 10 µg/ml 10 minutes; N = 10
Procedure: Human acute monocytic leukemia cells (THP-1 cells (ACTT)) were cultured in accordance with Reference D. THP-1 cells were cultured in RPMI1640 medium supplemented with 10% fetal bovine serum (FBS), 100 units/ml penicillin, and 100 µg/ml streptomycin at 37°C in 5% CO2 for 1 day. Further, THP-1 cells were cultured in RPMI1640 medium supplemented with 1 µg/ml Escherichia coli scrotype 055:B5 (manufactured by Sigma-Aldrich) and 1000 units/ml mouse IFN-γ (manufactured by R&D Systems) at 37°C in 5% CO2 for 1 day, to allow differentiation into macrophages.
The differentiated macrophages were cultured in RPMI1640 medium supplemented with 1 mg/ml Escherichia coli scrotype 055:B5 (manufactured by Sigma-Aldrich) and 1000 units/ml mouse IFN-γ (manufactured by R&D Systems) at 2.5 × 10^4 cells/well in a 24-well plate at 37°C in 5% CO2 for 4 days. The medium was replaced with HBSS (manufactured by Gibco) supplemented with imeglimin or clodronate), and then LPS (10 µg/ml) was added thereto, followed by further performing incubation for 10 minutes and then collection of 200 µl of the supernatant. The supernatant was immediately treated on a heat block at 95°C for 10 minutes, and ATP in the supernatant was quantified using an ATP assay kit - Luminescence (manufactured by Dojindo) (N = 10).

[3] = test system: imiquimod-induced psoriasis; assay: Imiquimod-induced psoriasis model; type: in vivo, mice; conditions: for auricular thickening and psoriatic symptoms: Example 21, N = 2
Procedure: Experimental psoriatic symptoms were induced in a mouse auricle by imiquimod. Six-week-old male C57BL/6 mice (N = 5) were acclimated for one week. On Days 1 to 7, 62.5 mg of 5% imiquimod cream (Beselna Cream 5%) (3.125 mg in terms of the active ingredient, manufactured by Mochida Pharmaceutical Co. Ltd.) was applied to the right auricle of the mice for 7 consecutive days (IMQ group). Once daily after the imiquimod application, the imeglimin administration group (IMQ + IMG group) received oral administration, at 40 mg/kg, of 500-mg Twymeeg (trademark) tablets (manufactured by Sumitomo Pharma Co. Ltd.) dissolved in physiological saline. The control group received an equal volume of physiological saline. On Day 8, the mice were euthanized by cervical dislocation, and auricle thickness was measured using a dial thickness gauge (manufactured by Adachi Sogyo Co., Ltd.).
Each excised mouse auricle was fixed in 4% paraformaldehyde at 4°C overnight. After ethanol substitution, the auricle was embedded in paraffin, sectioned using a rotary microtome Leica RM2165 (thickness, […]), and subjected to HE staining or immunohistochemical staining. For the immunohistochemical staining, the sections were deparaffinized, washed in xylene, and rehydrated through graded alcohols. The sections were incubated in DAKO at 95°C for 30 minutes. The sections were blocked at room temperature for 60 minutes and then incubated at room temperature for 2 hours to allow reaction with a TGM1 anti-rabbit polyclonal antibody (catalog number 12912-3-AP, manufactured by Proteintech). The sample was washed and then allowed to react with a secondary antibody (Alexa 544-conjugated secondary antibody (goat anti-rabbit IgG) (manufactured by Molecular Probes)) at room temperature for 60 minutes. After allowing reaction with DAPI at room temperature for 10 minutes, the sections were mounted with Fluoromount and imaged using a fluorescence microscope (BZ-X710, manufactured by Keyence).
The dorsal hair of mice was shaved and depilated (Day 0). To each of the left auricle and the depilated back of each mouse, 62.5 mg of 5% imiquimod cream (Beselna Cream 5%) was applied once daily a total of seven times (Days 1 to 7) in accordance with Example 18, to induce imiquimod-induced psoriasis (IMQ group). In the IMQ + IMG group, mice received oral administration of imeglimin (40 mg/kg) once daily (Day 1 to 7) after the imiquimod application. […] Thickness of the auricle was measured, and the degrees of erythema, desquamation, and infiltration in the affected area were rated on Days 1, 3, 5, 7, and 8 according to the PASI scoring of the DermNET Dermatology Resource (none: 0, mild: 1, moderate: 2, severe: 3, and very severe: 4). The resulting values were used to calculate the PASI score.
Further, for an auricle excised on Day 8, immunohistochemical staining was performed in the same manner as in Example 18, and auricular sections were imaged using a fluorescence microscope (BZ-X710; manufactured by Keyence Corporation).
On Days 1, 2, 3, 5, and 6, 62.5 mg of 5% imiquimod cream (Beselna Cream 5%) was applied to auricles of wild-type mice (IMQ) or VNUT knockout mice (VNUT KO + IMQ) to induce psoriatic symptoms. […] For a negative control, only 20% glycerin solution was applied. In IMQ + 1% IMG and IMQ + 0.1% IMG, 20% glycerin solution supplemented with 1% (w/v) imeglimin and 0.1% (w/v) imeglimin, respectively, was applied immediately after the imiquimod application. Further, in IMQ + 1% Clo and IMQ + 0.1% Clo, 20% glycerin solution supplemented with 1% (w/v) clodronate and 0.1% (w/v) clodronate, respectively, was applied immediately after the imiquimod application.

[4] = 1 g of imeglimin hydrochloride daily for one week; cited from earlier work

With O=P(O)(O)C(Cl)(Cl)P(=O)(O)O [clodronate] the “ATP secretion upon LPS stimulation” value ([1]; 10 µM) was “almost completely inhibited”, the “ATP secretion upon LPS stimulation” value [2] was “strongly inhibited” and the “auricular thickening and psoriatic symptoms” value ([3]; topical 20% glycerin solution with 0.1% (w/v) clodronate) was “the degree of auricular thickening was improved”. The “auricular thickening and psoriatic symptoms” value ([3]; topical 20% glycerin solution with 1% (w/v) clodronate) was “the degree of auricular thickening was improved”.
In the case of C[C@H]1N=C(N(C)C)N=C(N)N1 [imeglimin], the “ATP secretion upon LPS stimulation” value ([1]; 1 µM) is reported as “almost completely inhibited”, the “ATP secretion upon LPS stimulation” value ([1]; 10 µM) is reported as “almost completely inhibited” and the “ATP secretion upon LPS stimulation” value [2] is reported as “strongly inhibited”. For the same compound, the “epidermal desquamation and psoriatic symptoms of the auricle” value ([3]; Example 18, oral 40 mg/kg once daily, Days 1 to 7 (Twymeeg tablets dissolved in saline), N = 5) was “eliminated epidermal desquamation and reduced the psoriatic symptoms”, the “auricle thickening induced by imiquimod” value ([3]; Example 18, oral 40 mg/kg once daily, Days 1 to 7, N = 5) was “suppressed” and the “typical psoriatic symptoms (auricular thickness, desquamation, infiltration, PASI score), except erythema” value ([3]; Example 19, imeglimin 40 mg/kg orally once daily Day 1 to 7, N = 5) was “reduced”. The “effect compared with infliximab” value ([3]; Example 19, imeglimin 40 mg/kg orally versus infliximab 100 µg/mouse i.v.) was “almost equivalent, or imeglimin was more effective”, the “auricular thickening and psoriatic symptoms” value ([3]; topical 20% glycerin solution with 0.1% (w/v) imeglimin) was “no effect” and the “auricular thickening and psoriatic symptoms” value ([3]; topical 20% glycerin solution with 1% (w/v) imeglimin) was “the degree of auricular thickening was improved”. The blood imeglimin concentration [4] was 9 µM.
